Measured values taken from patent US7625911B2, “Amorphous form of erlotinib hydrochloride and its solid amorphous dispersion” (Mai De Ltd., priority 2005, dated 2009).

Test: Solubility (complete dissolution) of erlotinib hydrochloride in alcohol solvents at elevated temperature
Format: physicochemical
Description: In a first step of the distillation process, crystalline erlotinib hydrochloride is preferably dissolved in an […] solvent; more preferably dissolved in a straight or branched chain C1-C4 alcohol solvent, and most preferably dissolved in methanol or ethanol to form a solution. Erlotinib hydrochloride has the highest solubility in methanol or ethanol, allowing the complete dissolution of erlotinib hydrochloride at elevated temperature.
(§1) In particular, erlotinib hydrochloride is soluble in methanol at or over 50° C., allowing the complete dissolution of erlotinib hydrochloride in methanol at 50° C. or above with a concentration of 10 mg per milliliter (ml). The use of a relatively concentrated solution, e.g. about 10 mg per ml is therefore preferred for methanol.
as §1, with “ethanol” for “methanol”, “70°” for “50°”, “[…]” for “50° C. or above”, “ml.” for “milliliter (ml).”, “ethanol.” for “methanol.”
In particular, erlotinib hydrochloride is soluble in methanol, ethanol or a mixture of ethanol and water solvents at 45° C.-55° C., allowing the complete dissolution of erlotinib hydrochloride in methanol or ethanol at this elevated temperature with a concentration of about 10 mg per ml. The use of a relatively concentrated solution, e.g. about 10 mg per ml or over is therefore preferred for spraying drying process.

concentration at complete dissolution in ethanol (ethanol, soluble at or over 70° C. (sentence also says ambient temperature)): 10 mg per ml | concentration at complete dissolution in methanol (methanol, at 50° C. or above): 10 mg per milliliter (ml) | concentration at complete dissolution in methanol, ethanol or a mixture of ethanol and water (methanol, ethanol or ethanol/water mixture, 45° C.-55° C.): about 10 mg per ml
SMILES: C#Cc1cccc(Nc2ncnc3cc(OCCOC)c(OCCOC)cc23)c1.Cl [erlotinib hydrochloride, [6,7-bis(2-methoxy-ethoxy)-quinazolin-4-yl]-(3-ethynyl-phenyl) amine hydrochloride]
